Our source for the EC50 values is US8822464B2, “N-aryl-piperazine derivatives and their use as positive allosteric modulators of mGluR5 receptors” (Boehringer Ingelheim International GmbH, priority 2011, dated 2014).

T1 sequence (P41594 21-1212): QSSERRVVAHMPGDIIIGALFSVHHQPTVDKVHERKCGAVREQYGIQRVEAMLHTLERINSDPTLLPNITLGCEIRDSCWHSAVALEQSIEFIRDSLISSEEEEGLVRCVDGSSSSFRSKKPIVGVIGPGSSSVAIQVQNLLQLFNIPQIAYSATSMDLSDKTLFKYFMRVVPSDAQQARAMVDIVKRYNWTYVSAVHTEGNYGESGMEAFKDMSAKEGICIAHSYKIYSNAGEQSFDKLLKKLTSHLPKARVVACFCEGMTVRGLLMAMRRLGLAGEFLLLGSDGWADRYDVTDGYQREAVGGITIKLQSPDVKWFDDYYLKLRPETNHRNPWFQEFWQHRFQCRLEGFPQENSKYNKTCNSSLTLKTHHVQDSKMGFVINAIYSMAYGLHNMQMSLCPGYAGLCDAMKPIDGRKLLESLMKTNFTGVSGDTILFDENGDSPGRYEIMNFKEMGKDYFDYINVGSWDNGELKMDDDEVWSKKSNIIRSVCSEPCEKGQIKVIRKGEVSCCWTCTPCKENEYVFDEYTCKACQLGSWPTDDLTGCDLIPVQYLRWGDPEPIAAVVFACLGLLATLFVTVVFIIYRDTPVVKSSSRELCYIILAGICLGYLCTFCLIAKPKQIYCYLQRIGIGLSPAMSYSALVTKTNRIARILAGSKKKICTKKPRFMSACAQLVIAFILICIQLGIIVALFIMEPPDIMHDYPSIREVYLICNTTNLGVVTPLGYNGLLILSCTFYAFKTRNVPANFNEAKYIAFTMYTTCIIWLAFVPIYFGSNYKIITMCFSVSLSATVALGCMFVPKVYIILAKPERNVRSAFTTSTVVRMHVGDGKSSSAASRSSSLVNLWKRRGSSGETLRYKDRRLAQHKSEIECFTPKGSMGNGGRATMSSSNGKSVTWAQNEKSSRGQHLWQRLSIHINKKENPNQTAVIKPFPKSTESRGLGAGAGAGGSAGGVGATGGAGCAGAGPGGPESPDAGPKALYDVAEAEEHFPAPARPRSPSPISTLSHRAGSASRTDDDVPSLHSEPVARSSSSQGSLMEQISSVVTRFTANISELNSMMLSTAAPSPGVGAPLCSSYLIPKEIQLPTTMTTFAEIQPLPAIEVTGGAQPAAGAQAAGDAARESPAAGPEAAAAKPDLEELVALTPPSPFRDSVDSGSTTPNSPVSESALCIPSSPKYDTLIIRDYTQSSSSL

The assay addresses T1, human recombinant mGluR5 (Homo sapiens, UniProt P41594).
T1 construct: expressed in transfected cells; host or cells: HEK 293 cell line; cultured with tetracycline, hygromycin and geneticin; tetracycline withdrawn 3-7 days before the assay
As to the kind of experiment: positive modulation of mGluR5, calcium based FLIPR assay in HEK 293 cells. The note with it: HEK 293 cell line expressing human recombinant mGluR5; peak height of Ca release fluorescence signal after glutamate at approximately 5% basal stimulation; nonlinear regression. Here is the method: The positive modulation of mGluR5 is measured in a HEK 293 cell line expressing human recombinant mGluR5 and is detected with calcium based FLIPR assay. The cells are cultured with DMEM supplemented with 10% FCS, 2 μg/mL tetracycline, 100 μg/mL hygromycin and 500 μg/mL gneticin. The cell culture media is exchanged for tetracycline-free cell culture media 3-7 days before the assay. One day before the assay the cell culture medium is exchanged to DMEM without glutamine and phenol red and supplemented with 10% FCS, 100 μg/mL hygromycin and 500 μg/mL geneticin. On the assay day, the medium of the subconfluent cultures is removed and the cells are detached by addition of 2.5 ml EDTA(0.02%) per 175 cm2 culture flask for 1 minute. The cells are resuspend in Ringer solution (140 mM NaCl, 5 mM KCl, 2.5 mM CaCl2, 1.5 mM MgCl2, 5 mM Glucose, 10 mM Hepes; adjusted to pH 7.4 with NaOH), pooled and Ringer solution added to adjust the volume to 50 mL. The cell suspension is centrifuged for 5 min at 1500 U/min (425 g). The supernatant is removed and the cells washed a second time with 50 ml fresh Ringer solution and centrifuged again as before. The supernatant is again removed and the pellet resuspended in Ringer solution to 1,000,000 cells/ml (1×10^6 cells/mL). The cells are plated onto BD BioCoat Poly-D-Lysine 384 well plates (20.000 cells/well; 20 μl/well). The lid covered plates are then incubated until use at 37° C./10% CO2. For dye loading, 20 μl of Calcium-4 assay kit solution (prepared according to the manufacturer's description in Ringer solution) are added to the cells and the plates are incubated for 80 min 37° C. and then 10 min at room temperature.
Controls, Compound Dilution and Assay Execution:
Each assay plate contained wells with “high” and “low” controls:
Low controls 1% DMSO/ringer solution+basal glutamate activation (defined as 100% CTL).
High controls 10 μM CDPPB+basal glutamate activation (defined as 200% CTL).
Test compounds are dissolved and diluted in DMSO to 100-fold the desired concentrations. In a second step, the compounds are diluted in Ringer solution such that the compounds are 4-fold more concentrated than the desired final assay concentration. The final DMSO concentration was 1%.
20 μl of each compound solution are then transferred to the assay plate and the Ca2+ kinetic is measured to determine any intrinsic compound activity. After 5 min incubation in the FLIPR device, the second stimulation with 20 μl of glutamate in Ringer solution (glutamate concentration adjusted to approximately 5% basal stimulation of the maximal possible glutamate effect) is added and the kinetic Ca2+ response of the wells was measured for the modulation effect.
The peak height of the Ca release related fluorescence signal (9-66) is used for the EC50. The EC50 of the modulation is calculated over a nonlinear regression with GraphPad Prism (Table 1).
For the molecule `CCc1cccc(-c2cc(CC)n(CC(=O)N3CCN(c4ncc(OC)cn4)CC3)n2)c1` [Example 7.01.132], the EC50 (usually the midpoint of the concentration-response curve) came out at 138 nM.
Next, `COC(=O)c1ccc(-c2cc(-c3ccccc3)n(CC(=O)N3CCN(c4ncccn4)CC3)n2)cc1` [Example 7.04.03]: 392 nM.
For the molecule `COc1cc(N2CCN(C(=O)Cn3nc(-c4ccc(C)cn4)cc3-c3ccccc3)CC2)ncn1` [Example 7.01.120], the EC50 is 20 nM.
Consider `CCCc1cc(-c2ccc(F)c(C)c2)nn1CC(=O)N1CCN(c2ccccn2)CC1` [Example 7.01.83], for which the EC50 turned out to be 52 nM.
As for `Cc1cnc(-c2cc(-c3ccccc3)n(CC(=O)N3CCN(c4ccccn4)CC3)n2)cc1C` [Example 7.01.136], the figure is 38 nM.
Next, `Cc1cc(-c2cc(-c3ccccc3)nn2CC(=O)N2CCN(c3ncccn3)CC2)ccc1F` [Example 7.01.05]: 44 nM.
As for `COc1ccc(-c2cc(-c3ccccc3)n(CC(=O)N3CCN(c4ncccn4)CC3)n2)cc1C` [Example 7.01.177], the figure is 24 nM; as for `COc1cc(N2CCN(C(=O)Cn3nc(-c4ccc(F)c(C)n4)cc3-c3ccccc3)CC2)ncn1` [Example 7.01.156], 33 nM.
For the molecule `CCc1cc(-c2cccc(C)c2)nn1CC(=O)N1CCN(c2ncccn2)CC1` [Example 7.01.94], the EC50 came out at 136 nM.
As for `O=C(Cn1nc(-c2ccc(OC(F)F)cn2)cc1-c1ccccc1)N1CCN(c2ncccn2)CC1` [Example 7.01.178], the figure is 21 nM; as for `CCCc1cc(-c2ccc(F)c(C)c2)nn1CC(=O)N1CCN(c2ncccn2)CC1` [Example 7.01.81], 13 nM; as for `Cc1ccc(-c2cc(-c3ccccc3)n(CC(=O)N3CCN(c4ccccn4)CC3)n2)nc1` [Example 7.01.106], 35 nM.
As for `COc1cc(N2CCN(C(=O)Cn3nc(-c4ccc(F)cc4)cc3-c3ccc(F)cc3)CC2)ncn1` [Example 7.01.14], the figure is 22 nM; as for `Cc1cc(-c2cc(-c3ccccc3)nn2CC(=O)N2CCN(c3ccccn3)CC2)ccc1F` [Example 7.01.06], 99 nM; as for `O=C(Cn1nc(-c2ccc(OC(F)F)cc2)cc1-c1ccccc1)N1CCN(c2ncccn2)CC1` [Example 7.01.174], 3 nM.
Next, `Cc1cc(-c2cc(C)n(CC(=O)N3CCN(c4ncccn4)CC3)n2)ccc1F` [Example 7.01.104]: 39 nM; `O=C(Cn1nc(-c2ccccc2)cc1-c1ccccc1)N1CCN(c2cccnc2)CC1` [Example 7.02.02]: 428 nM.
`Cc1cnc(-c2cc(-c3ccccc3)nn2CC(=O)N2CCN(c3ncccn3)CC2)cc1C` [Example 7.01.134]: the EC50 amounted to 865 nM.
Next, `CCc1cc(-c2cccc(C#N)c2)nn1CC(=O)N1CCN(c2ccccn2)CC1` [Example 7.01.161]: 297 nM.
Next, `COc1ccc(-c2cc(C(C)C)n(CC(=O)N3CCN(c4cccnn4)CC3)n2)cc1` [Example 7.01.22]: 701 nM.
Next, `CCCc1cc(-c2ccc(F)c(C)n2)nn1CC(=O)N1CCN(c2ccccn2)CC1` [Example 7.01.186]: 441 nM; `COc1cnc(N2CCN(C(=O)Cn3nc(-c4cccc(Cl)c4)cc3-c3ccccc3)CC2)nc1` [Example 7.01.147]: 19 nM.
As to `COCCCc1cc(-c2ccc(F)c(C)c2)nn1CC(=O)N1CCN(c2cc(OC)ncn2)CC1` [Example 7.01.110], the EC50 came out at 137 nM.
Consider `CCc1cc(-c2cc(C)c(F)c(C)c2)nn1CC(=O)N1CCN(c2ccccn2)CC1` [Example 7.01.139], for which the EC50 was found to be 595 nM.
As for `COc1ccc(-c2cc(-c3ccc(OC)cc3)n(CC(=O)N3CCN(c4ncccn4)CC3)n2)cc1` [Example 7.03.01], the figure is 31 nM; as for `COCc1cc(-c2ccc(F)c(C)c2)nn1CC(=O)N1CCN(c2cc(OC)ncn2)CC1` [Example 7.02.18], 211 nM.
As to `COc1cc(N2CCN(C(=O)Cn3nc(-c4ccc(OC(F)F)cn4)cc3-c3ccccc3)CC2)ncn1` [Example 7.01.180], the EC50 was 64 nM.
Next, `Cc1ccnc(N2CCN(C(=O)Cn3nc(-c4ccc(F)c(C)c4)cc3C3CC3)CC2)c1` [Example 7.01.44]: 176 nM.
Next, `COc1cccc(-c2cc(C3CCCCC3)n(CC(=O)N3CCN(c4ccccn4)CC3)n2)c1` [Example 7.01.18]: 285 nM; `COCc1cc(-c2ccc(F)c(C)c2)nn1CC(=O)N1CCN(c2ncnc3[nH]cnc23)CC1` [Example 7.02.20]: 183 nM.
As for `CCc1cccc(-c2cc(CC)n(CC(=O)N3CCN(c4ncc(F)cn4)CC3)n2)c1` [Example 7.01.130], the figure is 471 nM.
`CCc1cccc(-c2cc(CC)n(CC(=O)N3CCN(c4cc(OC)ncn4)CC3)n2)c1` [Example 7.01.129]: the EC50 came out at 212 nM.
Next, `O=C(Cn1nc(-c2ccccc2)cc1-c1ccccc1)N1CCN(c2ncc(Br)cn2)CC1` [Example 7.02.11]: 91 nM.
As to `O=C(Cn1nc(-c2ccc(F)cn2)cc1-c1ccccc1)N1CCN(c2ncccn2)CC1` [Example 7.01.57], the EC50 is 81 nM.
Next, `COc1cnc(N2CCN(C(=O)Cn3nc(-c4ccc(F)c(C)c4)cc3C(C)C)CC2)nc1` [Example 7.01.32]: 75 nM; `CCc1cc(-c2cccc(Cl)c2)nn1CC(=O)N1CCN(c2cc(OC)ncn2)CC1` [Example 7.01.116]: 89 nM.
Next, `CCc1cc(-c2cc(C)c(F)c(C)c2)nn1CC(=O)N1CCN(c2ncccn2)CC1` [Example 7.01.138]: 230 nM; `Cc1ccc(-c2cc(-c3ccccc3)n(CC(=O)N3CCN(c4ncccn4)CC3)n2)nc1` [Example 7.01.111]: 24 nM; `CCc1cc(-c2ccc(F)c(C)c2)nn1CC(=O)N1CCN(c2ncc(OC)cn2)CC1` [Example 7.01.71]: 51 nM.
In the case of `COc1cnc(N2CCN(C(=O)Cn3nc(-c4cccc(C#N)c4)cc3-c3ccccc3)CC2)nc1` [Example 7.01.169], the EC50 came out at 11 nM.
As for `CCc1cc(-c2ccc(C)c(F)c2)nn1CC(=O)N1CCN(c2cc(OC)ncn2)CC1` [Example 7.01.183], the figure is 318 nM; as for `CCc1cc(-c2cccc(Cl)c2)nn1CC(=O)N1CCN(c2ccccn2)CC1` [Example 7.01.114], 153 nM; as for `O=C(Cn1nc(-c2ccccc2)cc1-c1ccccc1)N1CCN(c2ccccc2)CC1` [Example 7.02.04], 393 nM.
Next, `Cc1ccc(-c2cc(-c3ccccc3)nn2CC(=O)N2CCN(c3ncccn3)CC2)nc1C` [Example 7.01.133]: 652 nM.
Turning to `COc1cc(N2CCN(C(=O)Cn3nc(-c4ccc(F)c(OC)c4)cc3-c3ccccc3)CC2)ncn1` [Example 7.01.152], the EC50 came to 26 nM.
Next, `O=C(Cn1nc(-c2ccccc2)cc1-c1ccc(F)cn1)N1CCN(c2ncccn2)CC1` [Example 7.01.66]: 957 nM.
Consider `COc1cc(N2CCN(C(=O)Cn3nc(-c4ccc(F)cn4)cc3-c3ccc(F)cc3)CC2)ncn1` [Example 7.01.63], for which the EC50 worked out at 94 nM.
Regarding `N#Cc1cccc(-c2cc(-c3ccccc3)n(CC(=O)N3CCN(c4ccccn4)CC3)n2)c1` [Example 7.01.168], the EC50 worked out at 12 nM.
Consider `CC(C)c1cc(-c2ccc(F)cc2)nn1CC(=O)N1CCN(c2ncccn2)CC1` [Example 7.01.90], for which the EC50 worked out at 157 nM.
